{
  "source": "patent US20230310634A1",
  "about": "“ANTI-HUMAN VISTA ANTIBODIES AND USE THEREOF” (IMMUNEXT, INC., priority 2020, published 2023)",
  "key": {"FKBP5 [1]": {"tested_on": "FKBP5", "test": "FKBP5 transcriptional activation in isolated human Tregs (qRT-PCR)", "type": "cell-based", "details": "Experiment 3; 20 nM payload or molar equivalent; 2 donors", "from_the_text": "(§1) To monitor/confirm GC delivery and activity, we measured by quantitative Real Time PCR (qRT-PCR) the transcriptional activation of FKBP5 that is a direct and robust biomarker of glucocorticoid activity (JCEM 101: 4305-4312, 2016). We conducted this assessment on isolated human monocytes, regulatory T cells (T regs) and B cells following in vitro treatment with ADCs.\nFor monocytes vs B cell analyses, one blood donor collection was used for the single drug concentration experiment; blood from a separate single donor collection was used to assess drug dose response. For the regulatory T cell (Treg) analysis, blood from two separate donors was used.\n(§2) The various immune populations were isolated using different cell isolation kits and following manufacturer instructions: • EasySep Human monocyte enrichment kit without CD16 depletion (StemCell cat #19058) • Pan B cell isolation kit, human (Miltenyi Biotec, 130-101-638) • EasySep™ Human CD4^+ CD127 low CD49d− regulatory T cell enrichment Kit (StemCell cat #19232) […]\n(§3) After one wash with PBS, RNA was isolated from cell pellets using either the RNeasy Plus Mini kit (Qiagen, PN: 74136) or NucleoSpin RNA Plus (Macherey-Nagel #740984.250). […] RNA concentration was assessed by UV spectroscopy using a Nanodrop 2000. […]\n(§4) Quantitative Real-Time PCR was done using Taqman master mix 2× kit (#4369016) and run on a QuantStudio3 from Applied Biosystem. […]"}, "[2]": {"tested_on": "LPS stimulated human PBMCs", "test": "In vitro potency of steroid payloads in LPS stimulated human PBMCs (IL-1β, IL-6 ELISA)", "type": "cell-based"}, "[3]": {"details": "mouse, in vivo; cited from earlier work"}, "FKBP5 [4]": {"tested_on": "FKBP5", "test": "FKBP5 transcriptional activation in isolated human monocytes (qRT-PCR)", "type": "cell-based", "details": "Experiment 1; 20 nM payload or molar equivalent; 1 day; relative to no-treatment control", "from_the_text": "as §1\n(§5) Monocytes or B cells were isolated from healthy donor blood samples and treated with free steroid, anti-VISTA conjugated steroid, or conjugated isotype control. RNA was isolated, and change in FKBP5 transcript level assessed by qPCR.\nas §2, §3, §4"}, "FKBP5 [5]": {"tested_on": "FKBP5", "test": "FKBP5 transcriptional activation in isolated human B cells (qRT-PCR)", "type": "cell-based", "details": "Experiment 1; 20 nM payload or molar equivalent; 1 day; relative to no-treatment control", "from_the_text": "as §1, §5, §2, §3, §4"}},
  "note": "“Also recorded” adds a separate entry of the source.",
  "data": [
    {"smiles": "C[C@]12C=CC(=O)C=C1CC[C@@H]1[C@@H]2[C@@H](O)C[C@@]2(C)[C@H]1C[C@H]1O[C@@H](c3ccc(CC45CC(N)(C4)C5)cc3)O[C@]12C(=O)CO", "note": "[INX-SM-3, (6aR,6bS,7S,8aS,8bS,10R,11aR,12aS,12bS)-10-(4-((3-aminobicyclo[1.1.1]pentan-1-yl)methyl)phenyl)-7-hydroxy-8b-(2-hydroxyacetyl)-6a,8a-dimethyl-1,2,6a,6b,7,8,8a,8b,11a,12,12a,12b-dodecahydro-4H-naphtho[2′,1′:4,5]indeno[1,2-d][1,3]dioxol-4-one]", "values": [
      {"measurement": "FKBP5 transcription in Tregs", "setting": "FKBP5 [1]", "value": "increased FKBP5 transcription"},
      {"measurement": "steroid potency as free payloads in LPS-activated human PBMCS (conclusions)", "setting": "[2]", "value": "varying degrees of dose dependent steroid potency"},
      {"measurement": "potency relative to the other compounds of the experiment", "setting": "[2]; 1 ng/mL LPS, 24 hr", "value": "most potent compound among these three; also recorded: most potent compound among these compounds tested"},
      {"measurement": "IL-1β and IL-6 production", "setting": "[2]; Experiment 1, 1000-1 nM, 1 ng/mL LPS, 24 hr, n=1 donor", "value": "inhibit both IL-1β and IL-6 production"},
      {"measurement": "IL-1β production", "setting": "[2]; Experiment 2, 1000-1 nM, 1 ng/mL LPS, 24 hr, n=1 donor", "value": "show inhibition in IL-1β production"}
    ]},
    {"smiles": "C[C@@H]1C[C@H]2[C@@H]3CCC4=CC(=O)C=C[C@]4(C)[C@@]3(F)[C@@H](O)C[C@]2(C)[C@@]1(O)C(=O)CO", "note": "[dexamethasone]", "values": [
      {"measurement": "toxicity in this IBD model (literature)", "setting": "[3]", "value": "causes toxicity in this IBD model"}
    ]},
    {"smiles": "C[C@]12C=CC(=O)C=C1CC[C@@H]1[C@@H]2[C@@H](O)C[C@@]2(C)[C@H]1C[C@H]1O[C@@H](c3ccc(Cc4cccc(N)c4)cc3)O[C@]12C(=O)CO", "note": "[free J payload]", "values": [
      {"measurement": "FKBP5 transcription in monocytes", "setting": "FKBP5 [4]", "value": "robust increase in FKBP5 transcription"},
      {"measurement": "FKBP5 transcription in B cells", "setting": "FKBP5 [5]", "value": "robust increase in FKBP5 transcription"}
    ]}
  ]
}
